Source: patent US8759535B2, “Substituted fused imidazole derivatives, pharmaceutical compositions, and methods of use thereof” (High Point Pharmaceuticals, LLC, priority 2010, dated 2014)
Counter-ions that a name gives are not always drawn.

Each compound was assayed on HMOX1 (assay: HMOX1 Protein Assay (immunostaining of HO-1 in NHLF cells, GE InCell 1000)). Settings: Homo sapiens, fold change above DMSO treated cells, 3 μM compound (asterisk), 16 h.
Assay type: cell-based
Procedure, shortened: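 NHLF cells seeded overnight in FGM-2, then exposed to compound or DMSO vehicle for 16 h, fixed, and immunostained for HO-1 with Hoechst nuclear counterstain; imaged on InCell 1000. Values are fold change over DMSO-treated cells, generally at 5 μM (0.8% DMSO), with asterisked entries at 3 μM.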
For Cn1c(Nc2nc3ccc(Cl)cc3s2)nc2cc(C(=O)NCCCN)ccc21 [Example 345, 2-(6-Chloro-benzothiazol-2-ylamino)-1-methyl-1H-benzoimidazole-5-carboxylic acid (3-amino-propyl)-amide hydrochloride], the fold induction at 3 µM was 26.4.
Work on Cn1c(Nc2nc3ccc(OC(F)(F)F)cc3s2)nc2cc(C(=O)NCCCCN)ccc21 [Example 346, 1-Methyl-2-(6-trifluoromethoxy-benzothiazol-2-ylamino)-1H-benzoimidazole-5-carboxylic acid (4-amino-butyl)-amide hydrochloride] yielded a fold induction at 3 µM of 12.9.
In the case of Cn1c(Nc2nc3ccc(Cl)cc3s2)nc2cc(C(=O)NCCCCN)ccc21 [Example 347, 2-(6-Chloro-benzothiazol-2-ylamino)-1-methyl-1H-benzoimidazole-5-carboxylic acid (4-amino-butyl)-amide hydrochloride], the fold induction at 3 µM is reported as 15.3.
CN(C)CCCNC(=O)c1ccc2c(c1)nc(Nc1nc3ccc(OC(F)(F)F)cc3s1)n2C [Example 348, 1-Methyl-2-(6-trifluoromethoxy-benzothiazol-2-ylamino)-1H-benzoimidazole-5-carboxylic acid (3-dimethylamino-propyl)-amide] showed a fold induction at 3 µM of 22.
With CN(C)CCCNC(=O)c1ccc2c(c1)nc(Nc1nc3ccc(Cl)cc3s1)n2C [Example 349, 2-(6-Chloro-benzothiazol-2-ylamino)-1-methyl-1H-benzoimidazole-5-carboxylic acid (3-dimethylamino-propyl)-amide] the fold induction at 3 µM was 29.
CN(C)CCCNC(=O)c1ccc2c(c1)nc(Nc1nc3ccc(C(F)(F)F)cc3s1)n2C [Example 350, 1-Methyl-2-(6-trifluoromethyl-benzothiazol-2-ylamino)-1H-benzoimidazole-5-carboxylic acid (3-dimethylamino-propyl)-amide] showed a fold induction at 3 µM of 24.
With CCN(CC)CCCNC(=O)c1ccc2c(c1)nc(Nc1nc3ccc(OC(F)(F)F)cc3s1)n2C [Example 351, 1-Methyl-2-(6-trifluoromethoxy-benzothiazol-2-ylamino)-1H-benzoimidazole-5-carboxylic acid (3-diethylamino-propyl)-amide] the fold induction at 3 µM was 25.
Work on CCN(CC)CCCNC(=O)c1ccc2c(c1)nc(Nc1nc3ccc(Cl)cc3s1)n2C [Example 352, 2-(6-Chloro-benzothiazol-2-ylamino)-1-methyl-1H-benzoimidazole-5-carboxylic acid (3-diethylamino-propyl)-amide] yielded a fold induction at 3 µM of 20.
With CCN(CC)CCCNC(=O)c1ccc2c(c1)nc(Nc1nc3ccc(C(F)(F)F)cc3s1)n2C [Example 353, 1-Methyl-2-(6-trifluoromethyl-benzothiazol-2-ylamino)-1H-benzoimidazole-5-carboxylic acid (3-diethylamino-propyl)-amide] the fold induction at 3 µM was 23.
For Cn1c(Nc2nc3ccc(Cl)cc3s2)nc2cc(C(=O)NCCCN3CCCC3)ccc21 [Example 354, 2-(6-Chloro-benzothiazol-2-ylamino)-1-methyl-1H-benzoimidazole-5-carboxylic acid (3-pyrrolidin-1-yl-propyl)-amide], the fold induction at 3 µM was 17.
In the case of CN1CCN(CCCNC(=O)c2ccc3c(c2)nc(Nc2nc4ccc(OC(F)(F)F)cc4s2)n3C)CC1 [Example 355, 1-Methyl-2-(6-trifluoromethoxy-benzothiazol-2-ylamino)-1H-benzoimidazole-5-carboxylic acid [3-(4-methyl-piperazin-1-yl)-propyl]-amide], the fold induction at 3 µM is reported as 26.
With CN1CCN(CCCNC(=O)c2ccc3c(c2)nc(Nc2nc4ccc(Cl)cc4s2)n3C)CC1 [Example 356, 2-(6-Chloro-benzothiazol-2-ylamino)-1-methyl-1H-benzoimidazole-5-carboxylic acid [3-(4-methyl-piperazin-1-yl)-propyl]-amide] the fold induction at 3 µM was 19.
CN1CCN(CCCNC(=O)c2ccc3c(c2)nc(Nc2nc4ccc(C(F)(F)F)cc4s2)n3C)CC1 [Example 357, 1-Methyl-2-(6-trifluoromethyl-benzothiazol-2-ylamino)-1H-benzoimidazole-5-carboxylic acid [3-(4-methyl-piperazin-1-yl)-propyl]-amide] was tested, and the fold induction at 3 µM was 22.
Compound Cn1c(Nc2nc3ccc(OC(F)(F)F)cc3s2)nc2cc(C(=O)NCCCN3CCOCC3)ccc21 [Example 358, 1-Methyl-2-(6-trifluoromethoxy-benzothiazol-2-ylamino)-1H-benzoimidazole-5-carboxylic acid (3-morpholin-4-yl-propyl)-amide] has a fold induction at 3 µM of 11.8.
In the case of Cn1c(Nc2nc3ccc(Cl)cc3s2)nc2cc(C(=O)NCCCN3CCOCC3)ccc21 [Example 359, 2-(6-Chloro-benzothiazol-2-ylamino)-1-methyl-1H-benzoimidazole-5-carboxylic acid (3-morpholin-4-yl-propyl)-amide], the fold induction at 3 µM is reported as 17.4.
CCOc1ccc2nc(Nc3nc4cc(C(=O)NCC(=O)N(C)C)ccc4n3C)sc2c1 [Example 364, 2-(6-Ethoxy-benzothiazol-2-ylamino)-1-methyl-1H-benzoimidazole-5-carboxylic acid dimethylcarbamoylmethyl-amide] was tested, and the fold induction at 3 µM was 27.8.
CC(C)c1ccc2nc(Nc3nc4cc(C(=O)NCC(=O)N(C)C)ccc4n3C)sc2c1 [Example 365, 2-(6-Isopropyl-benzothiazol-2-ylamino)-1-methyl-1H-benzoimidazole-5-carboxylic acid dimethylcarbamoylmethyl-amide] was tested, and the fold induction at 3 µM was 20.1.
CN(C)C(=O)[C@H](CCCCN)NC(=O)c1ccc2c(c1)nc(Nc1nc3ccc(C(F)(F)F)cc3s1)n2C [Example 369, 1-Methyl-2-(6-trifluoromethyl-benzothiazol-2-ylamino)-1H-benzoimidazole-5-carboxylic acid ((S)-5-amino-1-dimethylcarbamoyl-pentyl)-amide hydrochloride] was tested, and the fold induction at 3 µM was 22.4.
With CN(C)CCCC[C@H](NC(=O)c1ccc2c(c1)nc(Nc1nc3ccc(C(F)(F)F)cc3s1)n2C)C(=O)N(C)C [Example 370, 1-Methyl-2-(6-trifluoromethyl-benzothiazol-2-ylamino)-1H-benzoimidazole-5-carboxylic acid ((S)-5-dimethylamino-1-dimethylcarbamoyl-pentyl)-amide] the fold induction at 3 µM was 19.3.
CN(C)C(=O)CCNC(=O)c1ccc2c(c1)nc(Nc1nc3ccc(Cl)cc3s1)n2C [Example 371, 2-(6-Chloro-benzothiazol-2-ylamino)-1-methyl-1H-benzoimidazole-5-carboxylic acid (2-dimethylcarbamoyl-ethyl)-amide] gave a fold induction at 3 µM of 29.
CN(C)C(=O)CCNC(=O)c1ccc2c(c1)nc(Nc1nc3ccc(C(F)(F)F)cc3s1)n2C [Example 372, 1-Methyl-2-(6-trifluoromethyl-benzothiazol-2-ylamino)-1H-benzoimidazole-5-carboxylic acid (2-dimethylcarbamoyl-ethyl)-amide] was tested, and the fold induction at 3 µM was 25.5.
Cn1c(Nc2nc3ccc(Cl)cc3s2)nc2cc(C(=O)NCCC(=O)N3CCOCC3)ccc21 [Example 373, 2-(6-Chloro-benzothiazol-2-ylamino)-1-methyl-1H-benzoimidazole-5-carboxylic acid (3-morpholin-4-yl-3-oxo-propyl)-amide] was tested, and the fold induction at 3 µM was 32.
Work on Cn1c(Nc2nc3ccc(C(F)(F)F)cc3s2)nc2cc(C(=O)NCCC(=O)N3CCOCC3)ccc21 [Example 374, 1-Methyl-2-(6-trifluoromethyl-benzothiazol-2-ylamino)-1H-benzoimidazole-5-carboxylic acid (3-morpholin-4-yl-3-oxo-propyl)-amide] yielded a fold induction at 3 µM of 34.2.

Same assay, conditions: Homo sapiens, fold change above DMSO treated cells, 5 μM compound, 16 h
Compound CCN(CC)CCCCNC(=O)c1ccc2c(c1)nc(Nc1nc3ccc(OC(F)(F)F)cc3s1)n2C [Example 360, 1-Methyl-2-(6-trifluoromethoxy-benzothiazol-2-ylamino)-1H-benzoimidazole-5-carboxylic acid (4-diethylamino-butyl)-amide] has a fold induction at 5 µM of 34.3.
CCN(CC)c1cc2c(cc1C(=O)NCC(=O)N(C)C)nc(Nc1nc3ccc(OC(F)(F)F)cc3s1)n2C [Example 361, 6-Diethylamino-1-methyl-2-(6-trifluoromethoxy-benzothiazol-2-ylamino)-1H-benzoimidazole-5-carboxylic acid dimethylcarbamoylmethyl-amide] was tested, and the fold induction at 5 µM was 28.8.
CCN(CC)c1cc2c(cc1C(=O)NCCN1CCOCC1)nc(Nc1nc3ccc(OC(F)(F)F)cc3s1)n2C [Example 362, 6-Diethylamino-1-methyl-2-(6-trifluoromethoxy-benzothiazol-2-ylamino)-1H-benzoimidazole-5-carboxylic acid (2-morpholin-4-yl-ethyl)-amide] gave a fold induction at 5 µM of 13.
For Cc1ccc2nc(Nc3nc4cc(C(=O)NCC(=O)N(C)C)ccc4n3C)sc2c1 [Example 363, 1-Methyl-2-(6-methyl-benzothiazol-2-ylamino)-1H-benzoimidazole-5-carboxylic acid dimethylcarbamoylmethyl-amide], the fold induction at 5 µM was 10.
Work on COCCn1c(Nc2nc3ccc(Cl)cc3s2)nc2cc(C(=O)NCC(=O)N(C)C)ccc21 [Example 366, 2-(6-Chloro-benzothiazol-2-ylamino)-1-(2-methoxy-ethyl)-1H-benzoimidazole-5-carboxylic acid dimethylcarbamoylmethyl-amide] yielded a fold induction at 5 µM of 18.8.
CNCCn1c(Nc2nc3ccc(Cl)cc3s2)nc2cc(C(=O)NCC(=O)N(C)C)ccc21 [Example 367, 2-(6-Chloro-benzothiazol-2-ylamino)-1-(2-methylamino-ethyl)-1H-benzoimidazole-5-carboxylic acid dimethylcarbamoylmethyl-amide hydrochloride] gave a fold induction at 5 µM of 25.4.
Compound CN(C)C(=O)[C@H](CO)NC(=O)c1ccc2c(c1)nc(Nc1nc3ccc(OC(F)(F)F)cc3s1)n2C [Example 368, 1-Methyl-2-(6-trifluoromethoxy-benzothiazol-2-ylamino)-1H-benzoimidazole-5-carboxylic acid ((S)-1-dimethylcarbamoyl-2-hydroxy-ethyl)-amide] has a fold induction at 5 µM of 48.
